Assay results taken from US20250109127A1, “METHODS OF USE OF PHENOXYPROPYLAMINE COMPOUNDS TO TREAT DEPRESSION” (Minerva Neurosciences, Inc., priority 2013, published 2025).
Values joined by “and” are separate entries in the source; they are usually repeats but may differ in a detail not shown here. Identical values can stand only once. Counter-ions that a name gives are not always drawn.

Key:
[1] = system: 5-HIAA release in the rat prefrontal cortex; assay: Microdialysis: 5-HIAA release in prefrontal cortex after I.P. administration; type: in vivo; conditions: for 5-HIAA release (% of basal levels) measured in dialysates, MEAN / 5-HIAA (% of respective basal) MEAN: n = 8; for 5-HIAA release (% of basal levels) measured in dialysates: individual animals, hydrochloride, 3 mg/kg; for 5-HIAA (% of respective basal) MEAN: SON-117 group 0.1 mg/kg I.P.
Experimental: The aim of the study was to evaluate, using microdialysis, the effects of an intraperitoneal (I.P.) administration in rats of three different doses of SON-117 on dopamine and its metabolites, serotonin and its metabolite (5-HIAA), and norepinephrine levels in prefrontal cortex.
Thirty-two adult male Wistar rats were used for the whole study (4 groups of eight animals planned for the study, Table 1).
Surgery was performed on rats weighing about 300 g at the beginning of the experiments. Rats were anaesthetized with Ketamine (50 mg/kg) & Xylazine (15 mg/kg) by intramuscular administration. The animals were placed in a stereotaxic apparatus in the flat-skull position at a constant setting of −3.3 mm between ear bars and the incisor bar. The animals were treated with a local anesthesic (xylocaine 1%, Astra Zeneca) and an analgesic (Temgesic, from Schering Plough, 0.05 mg/kg, s.c.). A rostrocaudal midline incision was made with a lancet to expose the dorsal skull surface. The “stereotaxic zero” was defined by the Bregma in accordance with Paxinos and Watson's atlas (1986). A hole was drilled in the skull with a drill and the meninges were pierced with a sterile needle to implant a CMA12 guide cannula which later received the dialysis probe.
Coordinates used for implanting guide cannula in prefrontal cortex from Bregma were anteroposterior 3.7 mm, mediolateral 0.8 mm, and dorsoventral −2 mm (top of the probe was at −5 mm). The guide cannula was fixed to the skull with two stainless steel screws (1.88 mm outside diameter) anchored. An application of dental cement was added. A plastic collar allowed each animal to be tethered to a Swivel assembly of the CMA 120 awake animal system. Following surgery, rats were kept in individual cages and allowed to recover for a minimum of 3-5 days before the experimentation. The rats were handled and put in plastic bowl for 10 min at least every day to habituate the animals to their new environment for the dialysis. An I.P. administration with saline was also performed every day.
Dialysis probes (CMA12/3 mm, membrane, 20 kD cut-off, Carnegie Medicine, Stockholm, Sweden), were carefully washed before inserting into the guide cannula. The wash was performed with the artificial cerebrospinal fluid (aCSF) medium (NaCl 147 mM, KCl 2.7 mM, CaCl2 1.2 mM, MgCl2 0.85 mM) at room temperature. The dialysis system was then equilibrated at 20° C. at a perfusion rate of 1 μl/min with a Carnegie pump (CMA100). All catheters (FEP tubing, internal volume of 1.2 μl/10 cm, and tubing adaptors) used for microdialysis were treated in the same conditions.
The probes duly prepared were inserted into the guide cannula and the CMA120 Swivel assembly secured to the animal using a plastic collar. Flow through the dialysis probe with aCSF was maintained at a rate of 1 μl/min during the whole experimentation. The first four fractions (corresponding to 2 hours) were discarded to avoid the effects of parenchymal disturbance and to ensure that an approximate steady-state level was reached. Fractions were then collected over a period of 8.5 h during which time the animals remained quiet. The dialysates were automatically collected with an autosampler (microfraction collector CMA 140, Carnegie Medicin) and stored at −80° C. until analysis. […] Perfusion was then maintained for 7 hours with aCSF. The dialysates (30 μl) were collected into 300 μl vials, transferred into dry ice and then kept frozen (−80° C.) until analysis. Frozen samples were shipped to a partner for analysis. At the end of the microdialysis study, a PBS with colored ink was perfused through the probe in order to visualize the dialyzed area.
Catecholamine assay: Concentrations of dopamine, DOPAC, HVA, 5-HIAA, 5-HT, and norepinephrin were determined for each sample by HPLC coupled with electrochemical detection.

5-HT2A = 5-HT2A (Homo sapiens, UniProt P28223); assay: Receptor binding, 5-HT2A
Sequence of 5-HT2A (P28223 whole entry): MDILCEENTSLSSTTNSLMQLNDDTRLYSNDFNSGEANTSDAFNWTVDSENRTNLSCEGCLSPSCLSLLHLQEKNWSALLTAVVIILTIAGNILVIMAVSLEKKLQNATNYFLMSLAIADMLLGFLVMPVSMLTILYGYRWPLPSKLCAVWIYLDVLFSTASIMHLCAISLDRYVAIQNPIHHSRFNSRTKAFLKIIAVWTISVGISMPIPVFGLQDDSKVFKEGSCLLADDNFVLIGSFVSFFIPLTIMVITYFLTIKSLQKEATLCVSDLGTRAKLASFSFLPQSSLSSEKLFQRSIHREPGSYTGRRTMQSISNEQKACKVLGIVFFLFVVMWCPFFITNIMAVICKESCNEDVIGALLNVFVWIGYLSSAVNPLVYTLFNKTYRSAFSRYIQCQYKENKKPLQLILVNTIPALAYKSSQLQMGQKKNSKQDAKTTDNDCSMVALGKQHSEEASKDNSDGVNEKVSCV

[2] = SON-117 3 mg/kg IP, T1 h 30-T2 h
[3] = SON-117 3 mg/kg IP, T1 h-T1 h 30
[4] = SON-117 3 mg/kg IP, T2 h 30-T3 h
[5] = SON-117 3 mg/kg IP, T2 h-T2 h 30
[6] = SON-117 3 mg/kg IP, T3 h 30-T4 h
[7] = SON-117 3 mg/kg IP, T3 h-T3 h 30
[8] = SON-117 3 mg/kg IP, T4 h 30-T5 h
[9] = SON-117 3 mg/kg IP, T4 h-T4 h 30
[10] = SON-117 3 mg/kg IP, T5 h 30-T6 h
[11] = SON-117 3 mg/kg IP, T5 h-T5 h 30
[12] = SON-117 3 mg/kg IP, T6 h 30-T7 h
[13] = SON-117 3 mg/kg IP, T6 h-T6 h 30

## Cc1nnc(-c2cc3c(OC[C@@H](O)CN4CCC(c5ccc(Cl)c(Cl)c5)CC4)cccc3o2)o1 [SON-117, (S)-1-(4-(3,4-dichlorophenyl)piperidino)-3-(2-(5-methyl-1,3,4-oxadiazol-2-yl)benzo(b)furan-4-yloxy)-2-propanol hydrochloride]
[1]; SON-117 3 mg/kg IP, T0-T30 min
  5-HIAA release (% of basal levels) measured in dialysates, MEAN: 100.01 % of basal levels
[1]; SON-117 3 mg/kg IP, T30-T1 h
  5-HIAA release (% of basal levels) measured in dialysates, MEAN: 103.84 % of basal levels
  5-HIAA release (% of basal levels) measured in dialysates: 107.55 % of basal levels and 89.33 % of basal levels and 88.65 % of basal levels and 110.35 % of basal levels and 117.87 % of basal levels and 100.51 % of basal levels and 111.18 % of basal levels and 105.33 % of basal levels
[1]; [2]
  5-HIAA release (% of basal levels) measured in dialysates, MEAN: 88.78 % of basal levels
  5-HIAA release (% of basal levels) measured in dialysates: 94.24 % of basal levels and 92.41 % of basal levels and 78.82 % of basal levels and 101.67 % of basal levels and 75.13 % of basal levels and 85.33 % of basal levels and 91.45 % of basal levels and 91.21 % of basal levels
[1]; [3]
  5-HIAA release (% of basal levels) measured in dialysates, MEAN: 98.52 % of basal levels
  5-HIAA release (% of basal levels) measured in dialysates: 108.67 % of basal levels and 95.26 % of basal levels and 83.80 % of basal levels and 110.78 % of basal levels and 108.78 % of basal levels and 87.31 % of basal levels and 96.27 % of basal levels and 97.27 % of basal levels
[1]; [4]
  5-HIAA release (% of basal levels) measured in dialysates, MEAN: 84.99 % of basal levels
  5-HIAA release (% of basal levels) measured in dialysates: 110.25 % of basal levels and 75.66 % of basal levels and 71.07 % of basal levels and 93.25 % of basal levels and 73.18 % of basal levels and 83.94 % of basal levels and 86.24 % of basal levels and 86.32 % of basal levels
[1]; [5]
  5-HIAA release (% of basal levels) measured in dialysates, MEAN: 85.83 % of basal levels
  5-HIAA release (% of basal levels) measured in dialysates: 99.74 % of basal levels and 84.01 % of basal levels and 68.40 % of basal levels and 89.07 % of basal levels and 81.80 % of basal levels and 77.11 % of basal levels and 98.05 % of basal levels and 88.46 % of basal levels
[1]; [6]
  5-HIAA release (% of basal levels) measured in dialysates, MEAN: 82.25 % of basal levels
  5-HIAA release (% of basal levels) measured in dialysates: 103.09 % of basal levels and 75.36 % of basal levels and 71.57 % of basal levels and 91.17 % of basal levels and 72.73 % of basal levels and 78.31 % of basal levels and 82.53 % of basal levels and 83.23 % of basal levels
[1]; [7]
  5-HIAA release (% of basal levels) measured in dialysates, MEAN: 83.71 % of basal levels
  5-HIAA release (% of basal levels) measured in dialysates: 100.53 % of basal levels and 78.33 % of basal levels and 73.76 % of basal levels and 91.10 % of basal levels and 69.55 % of basal levels and 76.15 % of basal levels and 84.48 % of basal levels and 95.78 % of basal levels
[1]; [8]
  5-HIAA release (% of basal levels) measured in dialysates, MEAN: 75.41 % of basal levels
  5-HIAA release (% of basal levels) measured in dialysates: 90.13 % of basal levels and 63.71 % of basal levels and 68.51 % of basal levels and 75.52 % of basal levels and 72.02 % of basal levels and 83.31 % of basal levels and 83.67 % of basal levels and 66.44 % of basal levels
[1]; [9]
  5-HIAA release (% of basal levels) measured in dialysates, MEAN: 77.54 % of basal levels
  5-HIAA release (% of basal levels) measured in dialysates: 91.08 % of basal levels and 55.23 % of basal levels and 70.28 % of basal levels and 91.20 % of basal levels and 65.52 % of basal levels and 74.09 % of basal levels and 86.17 % of basal levels and 86.73 % of basal levels
[1]; [10]
  5-HIAA release (% of basal levels) measured in dialysates, MEAN: 71.99 % of basal levels
  5-HIAA release (% of basal levels) measured in dialysates: 82.54 % of basal levels and 68.32 % of basal levels and 64.58 % of basal levels and 71.77 % of basal levels and 60.86 % of basal levels and 67.49 % of basal levels and 79.74 % of basal levels and 80.63 % of basal levels
[1]; [11]
  5-HIAA release (% of basal levels) measured in dialysates, MEAN: 72.53 % of basal levels
  5-HIAA release (% of basal levels) measured in dialysates: 84.10 % of basal levels and 66.07 % of basal levels and 66.30 % of basal levels and 74.75 % of basal levels and 64.08 % of basal levels and 74.08 % of basal levels and 79.04 % of basal levels and 71.85 % of basal levels
[1]; [12]
  5-HIAA release (% of basal levels) measured in dialysates, MEAN: 73.41 % of basal levels
  5-HIAA release (% of basal levels) measured in dialysates: 83.14 % of basal levels and 67.51 % of basal levels and 58.65 % of basal levels and 82.71 % of basal levels and 65.19 % of basal levels
[1]; [13]
  5-HIAA release (% of basal levels) measured in dialysates, MEAN: 69.60 % of basal levels
  5-HIAA release (% of basal levels) measured in dialysates: 74.73 % of basal levels and 64.32 % of basal levels and 54.46 % of basal levels and 81.53 % of basal levels and 68.15 % of basal levels and 73.95 % of basal levels and 70.08 % of basal levels
[1]; SON-117 3 mg/kg IP, T-30 min-T0 (pre-administration)
  5-HIAA release (% of basal levels) measured in dialysates, MEAN: 102.90 % of basal levels
[1]; SON-117 3 mg/kg IP, T-1 h 30-T-1 h (pre-administration)
  5-HIAA release (% of basal levels) measured in dialysates, MEAN: 94.73 % of basal levels
[1]; SON-117 3 mg/kg IP, T-1 h-T-30 min (pre-administration)
  5-HIAA release (% of basal levels) measured in dialysates, MEAN: 102.37 % of basal levels
[1]; SON-117 3 mg/kg IP, from 2 h to 7 h
  5-HIAA concentration in prefrontal cortex, significant and stable decrease, max.: 72%
[1]; SON-117 3 mg/kg, at 3 h and 3.5 h
  levels of 5-HIAA compared to the citalopram treated group (significant): higher
[1]; T0-T30 min
  5-HIAA (% of respective basal) MEAN: 94.78 % of respective basal
[1]; T30-T1 h
  5-HIAA (% of respective basal) MEAN: 114.88 % of respective basal
[1]; T1 h 30-T2 h
  5-HIAA (% of respective basal) MEAN: 102.18 % of respective basal
[1]; T1 h-T1 h 30
  5-HIAA (% of respective basal) MEAN: 119.57 % of respective basal
[1]; T2 h 30-T3 h
  5-HIAA (% of respective basal) MEAN: 94.10 % of respective basal
[1]; T2 h-T2 h 30
  5-HIAA (% of respective basal) MEAN: 92.09 % of respective basal
[1]; T3 h 30-T4 h
  5-HIAA (% of respective basal) MEAN: 94.62 % of respective basal
[1]; T3 h-T3 h 30
  5-HIAA (% of respective basal) MEAN: 92.14 % of respective basal
[1]; T4 h 30-T5 h
  5-HIAA (% of respective basal) MEAN: 97.11 % of respective basal
[1]; T4 h-T4 h 30
  5-HIAA (% of respective basal) MEAN: 108.99 % of respective basal
[1]; T5 h 30-T6 h
  5-HIAA (% of respective basal) MEAN: 90.37 % of respective basal
[1]; T5 h-T5 h 30
  5-HIAA (% of respective basal) MEAN: 96.07 % of respective basal
[1]; T6 h 30-T7 h
  5-HIAA (% of respective basal) MEAN: 92.61 % of respective basal
[1]; T6 h-T6 h 30
  5-HIAA (% of respective basal) MEAN: 92.22 % of respective basal
[1]; T-30 min-T0 (before administration)
  5-HIAA (% of respective basal) MEAN: 101.47 % of respective basal
[1]; T-1 h 30-T-1 h (before administration)
  5-HIAA (% of respective basal) MEAN: 98.52 % of respective basal
[1]; T-1 h-T-30 min (before administration)
  5-HIAA (% of respective basal) MEAN: 100.01 % of respective basal
5-HT2A
  affinity, 5-HT2A receptor binding: high affinity
